Source: ChEMBL document CHEMBL1909046, “DrugMatrix in vitro pharmacology data”

Columns and labels:
[1] = target: Platelet-activating factor receptor (Homo sapiens, UniProt P25105); assay: biochemical; format: tissue-based; also: in other assays of this panel Not Active means under 50% inhibition at 10 µM
[2] = target: T1, 5-hydroxytryptamine receptor 1A (Rattus norvegicus, UniProt P19327); format: cell membranes, CHO-K1, Membrane; conditions: for Ki: read-out: Ki; as to all read-outs here: in other assays of this panel Not Active means under 50% inhibition at 10 µM
T1 sequence (P19327 whole entry): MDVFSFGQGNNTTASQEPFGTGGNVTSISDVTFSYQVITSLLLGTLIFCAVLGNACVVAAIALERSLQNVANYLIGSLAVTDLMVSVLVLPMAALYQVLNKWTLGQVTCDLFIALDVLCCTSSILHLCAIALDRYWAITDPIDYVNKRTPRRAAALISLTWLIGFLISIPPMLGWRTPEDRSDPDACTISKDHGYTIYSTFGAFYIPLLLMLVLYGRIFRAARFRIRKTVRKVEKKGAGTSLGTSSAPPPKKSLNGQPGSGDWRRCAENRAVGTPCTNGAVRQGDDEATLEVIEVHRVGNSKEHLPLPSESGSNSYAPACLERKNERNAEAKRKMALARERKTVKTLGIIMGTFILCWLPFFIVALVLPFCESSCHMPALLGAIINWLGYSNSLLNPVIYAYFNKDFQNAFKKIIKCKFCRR

[3] = target: T2, Angiotensin-converting enzyme (Oryctolagus cuniculus, UniProt P12822); assay: biochemical; format: tissue-based, Lung;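 also: enzymatic inhibition of angiotensin-converting enzyme measured with FAPGG as the substrate; in other assays of this panel Not Active means under 50% inhibition at 10 µM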
T2 sequence (P12822 whole entry): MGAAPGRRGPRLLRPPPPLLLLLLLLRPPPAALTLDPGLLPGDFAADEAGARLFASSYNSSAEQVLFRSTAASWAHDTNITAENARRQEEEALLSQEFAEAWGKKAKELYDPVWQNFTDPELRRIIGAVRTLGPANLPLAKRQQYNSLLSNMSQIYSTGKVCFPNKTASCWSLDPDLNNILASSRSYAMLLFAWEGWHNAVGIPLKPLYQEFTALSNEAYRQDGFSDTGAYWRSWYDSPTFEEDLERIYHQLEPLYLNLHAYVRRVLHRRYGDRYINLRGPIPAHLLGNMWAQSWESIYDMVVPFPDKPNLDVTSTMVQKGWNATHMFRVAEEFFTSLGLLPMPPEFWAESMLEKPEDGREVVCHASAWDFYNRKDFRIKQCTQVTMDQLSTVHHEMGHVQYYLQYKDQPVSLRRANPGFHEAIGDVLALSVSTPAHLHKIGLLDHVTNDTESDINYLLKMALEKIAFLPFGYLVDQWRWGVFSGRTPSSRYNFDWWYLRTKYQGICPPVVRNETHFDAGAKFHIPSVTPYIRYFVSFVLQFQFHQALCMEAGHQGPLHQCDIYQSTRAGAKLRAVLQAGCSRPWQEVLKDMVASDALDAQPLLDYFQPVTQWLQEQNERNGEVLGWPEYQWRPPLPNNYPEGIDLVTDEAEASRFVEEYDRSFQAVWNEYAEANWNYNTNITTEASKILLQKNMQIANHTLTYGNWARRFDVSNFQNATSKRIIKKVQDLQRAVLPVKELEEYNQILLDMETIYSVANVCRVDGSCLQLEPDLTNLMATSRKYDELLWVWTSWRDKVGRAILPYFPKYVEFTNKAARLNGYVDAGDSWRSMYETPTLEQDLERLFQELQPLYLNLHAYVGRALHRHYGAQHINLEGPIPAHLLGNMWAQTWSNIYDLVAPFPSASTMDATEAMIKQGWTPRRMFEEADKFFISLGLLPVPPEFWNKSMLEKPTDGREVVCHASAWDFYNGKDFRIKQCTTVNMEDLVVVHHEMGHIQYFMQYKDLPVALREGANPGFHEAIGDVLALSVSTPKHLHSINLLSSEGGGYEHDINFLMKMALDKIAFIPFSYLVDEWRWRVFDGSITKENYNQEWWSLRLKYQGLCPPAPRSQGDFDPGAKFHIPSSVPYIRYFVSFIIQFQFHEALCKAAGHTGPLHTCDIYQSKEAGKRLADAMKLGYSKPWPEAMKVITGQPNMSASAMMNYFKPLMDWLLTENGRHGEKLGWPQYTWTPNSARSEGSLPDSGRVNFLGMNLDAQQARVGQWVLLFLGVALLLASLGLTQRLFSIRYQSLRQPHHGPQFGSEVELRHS

[4] = target: Beta-2 adrenergic receptor (Homo sapiens, UniProt P07550); assay: DRUGMATRIX: Adrenergic beta2 radioligand binding (ligand: [3H] CGP-12177); format: cell membranes, Membrane; conditions: cho; Not Active = under 50% inhibition at 10 µM
Beta-2 adrenergic receptor, sequence (P07550 whole entry): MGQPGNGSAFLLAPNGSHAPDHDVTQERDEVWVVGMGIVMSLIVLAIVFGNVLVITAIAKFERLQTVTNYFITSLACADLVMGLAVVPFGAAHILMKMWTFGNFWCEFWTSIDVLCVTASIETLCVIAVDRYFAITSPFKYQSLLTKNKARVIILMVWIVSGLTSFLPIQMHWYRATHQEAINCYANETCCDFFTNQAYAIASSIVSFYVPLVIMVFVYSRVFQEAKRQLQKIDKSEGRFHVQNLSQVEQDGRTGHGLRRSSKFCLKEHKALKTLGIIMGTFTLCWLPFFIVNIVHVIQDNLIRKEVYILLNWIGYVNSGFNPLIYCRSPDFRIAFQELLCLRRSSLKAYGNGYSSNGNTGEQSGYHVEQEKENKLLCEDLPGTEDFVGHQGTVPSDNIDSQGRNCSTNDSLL

[5] = target: 5-hydroxytryptamine receptor 4 (Cavia porcellus, UniProt O70528); format: cell membranes, Dunkin-Hartley, Striatum, Membrane; also: in other assays of this panel Not Active means under 50% inhibition at 10 µM
5-hydroxytryptamine receptor 4, sequence (O70528 whole entry): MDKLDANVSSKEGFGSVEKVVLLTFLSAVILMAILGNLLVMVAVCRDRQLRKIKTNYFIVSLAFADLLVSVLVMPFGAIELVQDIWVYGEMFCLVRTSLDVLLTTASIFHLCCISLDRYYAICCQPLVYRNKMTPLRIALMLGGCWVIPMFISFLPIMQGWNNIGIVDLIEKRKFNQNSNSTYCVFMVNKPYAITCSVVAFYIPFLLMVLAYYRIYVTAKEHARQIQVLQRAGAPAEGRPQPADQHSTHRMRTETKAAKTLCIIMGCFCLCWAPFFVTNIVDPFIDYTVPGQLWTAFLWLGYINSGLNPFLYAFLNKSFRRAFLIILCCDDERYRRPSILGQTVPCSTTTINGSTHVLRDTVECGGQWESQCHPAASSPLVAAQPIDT

[6] = target: Mitogen-activated protein kinase 3 (Homo sapiens, UniProt P27361); assay: DRUGMATRIX: Protein Serine/Threonine Kinase, ERK1 enzyme inhibition (substrate: Myelin Basic Protein); design: species or system Escherichia coli; conditions: Not Active = under 50% inhibition at 10 µM
Mitogen-activated protein kinase 3, sequence (P27361 whole entry): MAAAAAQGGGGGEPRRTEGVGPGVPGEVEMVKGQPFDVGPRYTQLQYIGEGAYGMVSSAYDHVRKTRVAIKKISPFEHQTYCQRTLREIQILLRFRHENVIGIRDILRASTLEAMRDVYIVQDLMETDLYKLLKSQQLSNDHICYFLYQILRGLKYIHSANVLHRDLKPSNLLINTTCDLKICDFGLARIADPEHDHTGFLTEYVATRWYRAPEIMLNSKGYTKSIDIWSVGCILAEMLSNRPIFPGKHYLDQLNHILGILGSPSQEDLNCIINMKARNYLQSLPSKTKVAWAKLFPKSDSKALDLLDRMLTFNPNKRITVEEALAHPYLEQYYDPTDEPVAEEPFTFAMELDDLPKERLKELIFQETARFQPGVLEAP

[7] = DRUGMATRIX: Phosphodiesterase PDE4 enzyme inhibition (substrate: [3H]cAMP + cAMP); conditions: u-937; Not Active = under 50% inhibition at 10 µM
[8] = target: 5-hydroxytryptamine receptor 1B (Rattus norvegicus, UniProt P28564); format: cell membranes, Wistar, Cerebral cortex, Membrane; conditions: for Ki: read-out: Ki
5-hydroxytryptamine receptor 1B, sequence (P28564 whole entry): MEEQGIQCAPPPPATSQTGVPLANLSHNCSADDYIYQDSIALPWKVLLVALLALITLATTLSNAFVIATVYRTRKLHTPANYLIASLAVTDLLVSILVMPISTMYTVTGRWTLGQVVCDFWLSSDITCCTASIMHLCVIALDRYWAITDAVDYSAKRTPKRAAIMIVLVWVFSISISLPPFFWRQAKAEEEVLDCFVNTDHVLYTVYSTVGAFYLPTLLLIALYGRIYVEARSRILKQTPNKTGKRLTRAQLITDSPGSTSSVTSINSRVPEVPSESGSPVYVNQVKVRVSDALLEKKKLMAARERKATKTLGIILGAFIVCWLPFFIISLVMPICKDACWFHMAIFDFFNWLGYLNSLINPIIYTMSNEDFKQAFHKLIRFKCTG

[9] = DRUGMATRIX: GABAA, Muscimol, Central radioligand binding (ligand: [3H] Muscimol); format: cell membranes, Rattus norvegicus, Wistar, Brain, Membrane; conditions: Not Active = under 50% inhibition at 10 µM
[10] = target: T3, Alpha-1B adrenergic receptor (Rattus norvegicus, UniProt P15823); assay: DRUGMATRIX: Alpha-1B adrenergic receptor radioligand binding (ligand: prazosin); format: cell membranes, Wistar, Liver, Membrane; conditions: Not Active = under 50% inhibition at 10 µM
T3 sequence (P15823 whole entry): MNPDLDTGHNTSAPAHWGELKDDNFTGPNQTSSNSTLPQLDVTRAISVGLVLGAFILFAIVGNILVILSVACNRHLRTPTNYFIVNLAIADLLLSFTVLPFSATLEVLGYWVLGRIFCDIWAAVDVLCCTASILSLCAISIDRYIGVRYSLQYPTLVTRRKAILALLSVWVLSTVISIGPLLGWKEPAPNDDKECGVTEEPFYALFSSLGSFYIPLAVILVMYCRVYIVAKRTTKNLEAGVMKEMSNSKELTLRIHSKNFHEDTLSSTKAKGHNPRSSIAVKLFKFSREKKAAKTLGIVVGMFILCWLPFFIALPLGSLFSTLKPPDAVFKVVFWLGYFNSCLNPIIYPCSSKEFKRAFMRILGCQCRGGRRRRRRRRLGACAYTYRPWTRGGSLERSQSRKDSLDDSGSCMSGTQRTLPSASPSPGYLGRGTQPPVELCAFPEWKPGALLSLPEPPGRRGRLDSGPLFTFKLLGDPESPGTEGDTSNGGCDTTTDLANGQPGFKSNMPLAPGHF

Platelet-activating factor receptor, sequence (P25105 whole entry): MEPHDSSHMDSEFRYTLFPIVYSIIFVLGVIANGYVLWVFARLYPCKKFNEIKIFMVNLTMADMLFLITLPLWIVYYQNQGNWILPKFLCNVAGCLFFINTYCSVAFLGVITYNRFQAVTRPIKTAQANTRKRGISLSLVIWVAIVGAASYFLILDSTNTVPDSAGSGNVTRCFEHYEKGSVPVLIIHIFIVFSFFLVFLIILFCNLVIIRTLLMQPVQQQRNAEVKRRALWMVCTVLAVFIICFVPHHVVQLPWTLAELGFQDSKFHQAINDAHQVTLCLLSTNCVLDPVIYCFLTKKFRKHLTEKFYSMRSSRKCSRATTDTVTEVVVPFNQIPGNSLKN

SMILES	IC50 ([1]; platelet)	IC50 ([2]; cho-k1)	IC50 [3]	IC50 [4]	IC50 [5]	IC50 [6]	IC50 [7]	Ki [7]	IC50 [8]	IC50 [9]	Ki [9]	IC50 [10]	IC50 ([2]; read-out: IC50) [µM]	Ki [2] [µM]	IC50 ([8]; read-out: IC50) [µM]	Ki [8] [µM]	IC50 ([1]; read-out: IC50) [µM]	Ki ([1]; read-out: Ki) [µM]
CCOC(=O)[C@H](CCc1ccccc1)N[C@@H](C)C(=O)N1[C@H](C(=O)O)C[C@@H]2CCC[C@@H]21	Not Active	Not Active	Not Active	Not Active	Not Active	Not Active	Not Active	Not Active	Not Active	Not Active	Not Active	Not Active	–	–	–	–	–	–
CC(C)(C)NC(=O)[C@@H]1CN(Cc2cccnc2)CCN1C[C@@H](O)C[C@@H](Cc1ccccc1)C(=O)N[C@H]1c2ccccc2C[C@H]1O.O	Not Active	Not Active	Not Active	Not Active	Not Active	Not Active	Not Active	Not Active	Not Active	Not Active	Not Active	Not Active	–	–	–	–	–	–
CC(C)(C)NCC(O)c1ccc(O)c(CO)c1 (configuration not stated) [ALBUTEROL]	Not Active	Not Active	Not Active	–	Not Active	Not Active	Not Active	Not Active	Not Active	Not Active	Not Active	Not Active	–	–	–	–	–	–
COc1ccc(CCN2CCC(Nc3nc4ccccc4n3Cc3ccc(F)cc3)CC2)cc1 [ASTEMIZOLE]	Not Active	–	Not Active	Not Active	Not Active	Not Active	–	–	–	–	–	–	0.767	0.438	1.39	0.63	–	–
CN(C)CCCN1c2ccccc2CCc2ccc(Cl)cc21 [CLOMIPRAMINE]	Not Active	Not Active	Not Active	Not Active	Not Active	Not Active	–	–	Not Active	–	–	–	–	–	–	–	–	–
Clc1ccccc1C(c1ccccc1)(c1ccccc1)n1ccnc1 [CLOTRIMAZOLE]	–	–	Not Active	–	Not Active	Not Active	–	–	–	–	–	–	17.7	10.1	27.3	12.4	35	22.6
O=C(CCCN1CCC(O)(c2ccc(Cl)cc2)CC1)c1ccc(F)cc1 [HALOPERIDOL]	Not Active	Not Active	Not Active	Not Active	Not Active	Not Active	–	–	Not Active	–	–	–	–	–	–	–	–	–
